Among the data in patent US12643903B2, “Bifunctional compounds for degradation of EGFR and related methods of use” (BeiGene, Ltd., priority 2020, dated 2026) are DC50 values, retold here.

Each structure is given as a SMILES string. Bounds are passed on as bounds.

For orientation: DC50 means the concentration giving 50% degradation. Read a low DC50 as degradation at low concentration.

In assay [1] the target is T1, EGFR (Homo sapiens, UniProt P00533, DEL746-750).
T1 construct: endogenous in cells; host or cells: HCC827
Briefly: Cell Degradation 2: EGFR degradation in HCC827 cells, HTRF assay. It is filed as cell-based. The settings on record: 16 h treatment, EGFR degradation by HTRF. Here is the method: After 16 h treatment, add 100 μl 1×lysis buffer to each well; seal the plate and incubate 1 hour at room temperature on a plate shaker; Once the cells are lysed, 16 μl diluted (2 μL to 14 μl 1× lysisi buffer) cell lysate are transferred to a PE 384-well HTRF detection plate; 4 μL of pre-mixed HTRF antibodies are added to each well; Cover the plate with a plate sealer, spin 1000 rpm for 1 min, Incubate overnight at room temperature; Read on BMG PheraStar with HTRF protocol (337 nm-665 nm-620 nm).
(§1) The IC50 (DC50) value of a compound can be obtained by fitting the following equation Y=Bottom+(TOP−Bottom)/(1+((IC50/X)^hillslope))
(§2) Wherein, X and Y are known values, and IC50, Hillslope, Top and Bottom are the parameters obtained by fitting with software. Y is the inhibition percentage (calculated from the equation), X is the concentration of the compound; IC50 is the concentration of the compound when the 50% inhibition is reached. The smaller the IC50 value is, the stronger the inhibitory ability of the compound is. Vice versa, the higher the IC50 value is, the weaker the ability the inhibitory ability of the compound is; Hillslope represents the slope of the fitted curve, generally around 1*; Bottom represents the minimum value of the curve obtained by data fitting, which is generally 0%±20%; Top represents the maximum value of the curve obtained by data fitting, which is generally 100%±20%. The experimental data were fitted by calculating and analyzing with Dotmatics data analysis software.
On the technique in general: In TR-FRET formats the signal depends on donor and acceptor labels being close together.

Assay [2] addresses T2, EGFR (Homo sapiens, UniProt P00533, L858R/T790M).
T2 construct: endogenous in cells; host or cells: H1975
The assay is described as follows: Cell Degradation 1: EGFR degradation in H1975 cells, HTRF assay. As to conditions: 16 h treatment, EGFR degradation by HTRF. Type of assay: cell-based. Here is the method: After 16 h treatment, add 100 μl 1×lysis buffer to each well; seal the plate and incubate 1 hour at room temperature on a plate shaker; Once the cells are lysed, 16 μL of cell lysate are transferred to a PE 384-well HTRF detection plate; 4 μL of pre-mixed HTRF antibodies are added to each well; Cover the plate with a plate sealer, spin 1000 rpm for 1 min, Incubate overnight at room temperature; Read on BMG PheraStar with HTRF protocol (337 nm-665 nm-620 nm).
as §1, §2

T1 sequence (P00533 with tags, fused parts or gaps DEL746-750): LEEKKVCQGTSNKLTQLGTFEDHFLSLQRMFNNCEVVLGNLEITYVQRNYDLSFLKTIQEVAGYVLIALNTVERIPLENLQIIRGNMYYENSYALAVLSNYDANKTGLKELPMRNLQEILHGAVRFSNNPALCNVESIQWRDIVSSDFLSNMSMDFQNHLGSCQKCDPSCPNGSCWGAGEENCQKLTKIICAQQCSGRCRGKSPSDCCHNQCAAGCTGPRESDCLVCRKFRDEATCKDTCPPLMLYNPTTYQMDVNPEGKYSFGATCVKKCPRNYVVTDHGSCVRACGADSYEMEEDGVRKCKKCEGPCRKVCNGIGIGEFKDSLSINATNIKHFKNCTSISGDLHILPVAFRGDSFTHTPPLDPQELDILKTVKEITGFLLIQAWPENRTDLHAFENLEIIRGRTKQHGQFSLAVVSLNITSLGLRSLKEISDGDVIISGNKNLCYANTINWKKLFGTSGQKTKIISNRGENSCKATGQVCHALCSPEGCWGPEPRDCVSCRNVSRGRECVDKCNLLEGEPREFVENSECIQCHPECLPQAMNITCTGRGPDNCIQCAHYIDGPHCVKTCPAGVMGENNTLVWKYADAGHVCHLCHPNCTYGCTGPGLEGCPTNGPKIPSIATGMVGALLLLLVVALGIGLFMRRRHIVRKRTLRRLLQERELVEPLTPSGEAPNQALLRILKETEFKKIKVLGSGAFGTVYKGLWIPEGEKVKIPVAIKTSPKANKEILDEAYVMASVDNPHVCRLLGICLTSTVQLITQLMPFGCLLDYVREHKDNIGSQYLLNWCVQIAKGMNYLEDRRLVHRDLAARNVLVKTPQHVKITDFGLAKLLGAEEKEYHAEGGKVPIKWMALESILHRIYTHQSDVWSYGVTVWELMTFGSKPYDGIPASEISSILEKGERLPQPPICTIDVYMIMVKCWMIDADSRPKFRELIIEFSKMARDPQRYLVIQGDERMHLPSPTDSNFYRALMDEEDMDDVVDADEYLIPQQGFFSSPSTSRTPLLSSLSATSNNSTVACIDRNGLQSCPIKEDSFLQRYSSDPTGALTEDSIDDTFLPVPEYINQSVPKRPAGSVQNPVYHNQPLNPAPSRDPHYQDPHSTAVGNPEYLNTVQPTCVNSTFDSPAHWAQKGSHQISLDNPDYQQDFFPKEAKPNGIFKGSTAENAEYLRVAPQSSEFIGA
T1 sequence (Q96SW2 whole entry partner): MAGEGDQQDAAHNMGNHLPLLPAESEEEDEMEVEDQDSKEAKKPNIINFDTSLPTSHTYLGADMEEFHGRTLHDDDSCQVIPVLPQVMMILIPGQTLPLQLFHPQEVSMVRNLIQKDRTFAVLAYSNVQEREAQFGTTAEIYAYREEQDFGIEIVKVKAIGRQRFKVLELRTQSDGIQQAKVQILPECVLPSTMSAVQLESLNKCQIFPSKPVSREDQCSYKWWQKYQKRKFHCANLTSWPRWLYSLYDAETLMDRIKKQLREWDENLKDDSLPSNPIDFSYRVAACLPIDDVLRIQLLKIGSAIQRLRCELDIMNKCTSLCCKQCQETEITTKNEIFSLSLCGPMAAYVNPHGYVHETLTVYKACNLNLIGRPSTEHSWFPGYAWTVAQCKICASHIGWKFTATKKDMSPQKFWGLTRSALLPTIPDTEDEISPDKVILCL
T2 sequence (P00533 25-1210 T790M/L858R): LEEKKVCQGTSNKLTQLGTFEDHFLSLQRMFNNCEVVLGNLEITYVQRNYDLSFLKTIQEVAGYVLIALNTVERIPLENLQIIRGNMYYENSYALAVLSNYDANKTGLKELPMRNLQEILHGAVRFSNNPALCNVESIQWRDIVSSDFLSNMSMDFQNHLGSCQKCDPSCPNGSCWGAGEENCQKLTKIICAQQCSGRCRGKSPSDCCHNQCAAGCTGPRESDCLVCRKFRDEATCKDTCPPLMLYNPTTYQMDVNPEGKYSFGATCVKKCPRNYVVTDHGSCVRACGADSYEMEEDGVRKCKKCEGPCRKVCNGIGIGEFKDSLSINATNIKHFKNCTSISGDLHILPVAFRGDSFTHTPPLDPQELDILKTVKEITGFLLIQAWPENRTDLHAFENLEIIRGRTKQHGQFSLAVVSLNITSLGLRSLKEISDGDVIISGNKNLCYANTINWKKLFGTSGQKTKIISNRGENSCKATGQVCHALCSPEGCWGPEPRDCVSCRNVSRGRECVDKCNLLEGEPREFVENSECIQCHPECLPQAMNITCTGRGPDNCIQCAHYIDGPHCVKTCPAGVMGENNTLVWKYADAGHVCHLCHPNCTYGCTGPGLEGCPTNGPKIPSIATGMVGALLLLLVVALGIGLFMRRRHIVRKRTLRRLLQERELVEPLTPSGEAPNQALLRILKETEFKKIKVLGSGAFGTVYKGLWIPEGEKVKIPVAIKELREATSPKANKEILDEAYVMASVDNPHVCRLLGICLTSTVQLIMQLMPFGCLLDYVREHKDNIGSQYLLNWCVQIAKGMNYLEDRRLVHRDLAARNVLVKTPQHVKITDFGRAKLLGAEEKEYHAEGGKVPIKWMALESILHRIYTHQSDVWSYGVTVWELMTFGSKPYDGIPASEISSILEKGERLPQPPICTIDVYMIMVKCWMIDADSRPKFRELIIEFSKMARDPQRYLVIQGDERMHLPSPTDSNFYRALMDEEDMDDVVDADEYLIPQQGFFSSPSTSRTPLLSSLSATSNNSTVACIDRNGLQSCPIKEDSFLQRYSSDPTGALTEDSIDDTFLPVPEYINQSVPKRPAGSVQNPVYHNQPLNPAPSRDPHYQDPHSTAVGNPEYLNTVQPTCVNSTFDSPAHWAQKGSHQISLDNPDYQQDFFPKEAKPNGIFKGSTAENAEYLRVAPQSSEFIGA

As for `CS(=O)(=O)N1CCc2cccc(Nc3nc(Nc4ccc(N5CCC(N6CCN(C(=O)C7CN(c8ccc(C9CCC(=O)NC9=O)cc8)C7)CC6)CC5)c(F)c4)nc4[nH]ccc34)c21` (stereo not drawn) [Example 58, 3-(4-(3-(4-(1-(2-fluoro-4-((4-((1-(methylsulfonyl)indolin-7-yl)amino)-7H-pyrrolo[2,3-d]pyrimidin-2-yl)amino)phenyl)piperidin-4-yl)piperazine-1-carbonyl)azetidin-1-yl)phenyl)piperidine-2,6-dione], the DC50 at EGFR [1] stood at 17.7 nM; on EGFR [2] it was 2.8 nM.

For the compound `CS(=O)(=O)N1CCc2cccc(Nc3nc(Nc4ccc(N5CCC(N6CCN(CC7CN(c8ccc9c(c8)CN(C8CCC(=O)NC8=O)C9=O)C7)CC6)CC5)c(F)c4)nc4[nH]ccc34)c21` (stereo not drawn) [Example 59, 3-(5-(3-((4-(1-(2-fluoro-4-((4-((1-(methylsulfonyl)indolin-7-yl)amino)-7H-pyrrolo[2,3-d]pyrimidin-2-yl)amino)phenyl)piperidin-4-yl)piperazin-1-yl)methyl)azetidin-1-yl)-1-oxoisoindolin-2-yl)piperidine-2,6-dione], the values for the DC50 at EGFR [1] and on EGFR [2] were 3.1 nM and 2.7 nM, respectively.

With `CS(=O)(=O)N1CCc2cccc(Nc3nc(Nc4ccc(N5CCC(N6CCN(CC7CN(c8ccc9c(c8)C(=O)N(C8CCC(=O)NC8=O)C9=O)C7)CC6)CC5)c(F)c4)nc4[nH]ccc34)c21` (stereo not drawn) [Example 60, 2-(2,6-dioxopiperidin-3-yl)-5-(3-((4-(1-(2-fluoro-4-((4-((1-(methylsulfonyl)indolin-7-yl)amino)-7H-pyrrolo[2,3-d]pyrimidin-2-yl)amino)phenyl)piperidin-4-yl)piperazin-1-yl)methyl)azetidin-1-yl)isoindoline-1,3-dione], the DC50 was 14.6 nM at EGFR [1] and 4.9 nM on EGFR [2].

Consider `CS(=O)(=O)N1CCc2cccc(Nc3nc(Nc4ccc(N5CCC(N6CCN(C(=O)CC7CN(c8ccc9c(c8)C(=O)N(C8CCC(=O)NC8=O)C9=O)C7)CC6)CC5)c(F)c4)nc4[nH]ccc34)c21` (stereo not drawn) [Example 61, 2-(2,6-dioxopiperidin-3-yl)-5-(3-(2-(4-(1-(2-fluoro-4-((4-((1-(methylsulfonyl)indolin-7-yl)amino)-7H-pyrrolo[2,3-d]pyrimidin-2-yl)amino)phenyl)piperidin-4-yl)piperazin-1-yl)-2-oxoethyl)azetidin-1-yl)isoindoline-1,3-dione], for which the DC50 worked out at 19.4 nM on EGFR [1] and 5.7 nM on EGFR [2].

Turning to `CS(=O)(=O)N1CCc2cccc(Nc3nc(Nc4ccc(N5CCC(N6CCN(C(=O)[C@H]7CCN(c8ccc9c(c8)C(=O)N(C8CCC(=O)NC8=O)C9=O)C7)CC6)CC5)c(F)c4)nc4[nH]ccc34)c21` (stereo partly drawn) [Example 63, 2-(2,6-dioxopiperidin-3-yl)-5-((S)-3-(4-(1-(2-fluoro-4-((4-((1-(methylsulfonyl)indolin-7-yl)amino)-7H-pyrrolo[2,3-d]pyrimidin-2-yl)amino)phenyl)piperidin-4-yl)piperazine-1-carbonyl)pyrrolidin-1-yl)isoindoline-1,3-dione], the results for the DC50 on EGFR [1] and at EGFR [2] were greater than 10000 nM and 3.9 nM, respectively.

In the case of `CS(=O)(=O)N1CCc2cccc(Nc3nc(Nc4ccc(N5CCC(N6CCN(CC[C@@H]7CCN(c8ccc(C9CCC(=O)NC9=O)cc8)C7)CC6)CC5)c(F)c4)nc4[nH]ccc34)c21` (stereo partly drawn) [Example 64, 3-(4-((R)-3-(2-(4-(1-(2-fluoro-4-((4-((1-(methylsulfonyl)indolin-7-yl)amino)-7H-pyrrolo[2,3-d]pyrimidin-2-yl)amino)phenyl)piperidin-4-yl)piperazin-1-yl)ethyl)pyrrolidin-1-yl)phenyl)piperidine-2,6-dione], the DC50 on EGFR [1] was 156 nM; on EGFR [2], 6.1 nM.

With `CS(=O)(=O)N1CCc2cccc(Nc3nc(Nc4ccc(N5CCC(N6CCN(CCc7ccc(NC8CCC(=O)NC8=O)cc7)CC6)CC5)c(F)c4)nc4[nH]ccc34)c21` (stereo not drawn) [Example 66, 3-((4-(2-(4-(1-(2-fluoro-4-((4-((1-(methylsulfonyl)indolin-7-yl)amino)-7H-pyrrolo[2,3-d]pyrimidin-2-yl)amino)phenyl)piperidin-4-yl)piperazin-1-yl)ethyl)phenyl)amino)piperidine-2,6-dione], the DC50 at EGFR [1] worked out at 18 nM; on EGFR [2] it was 7.1 nM.

Take `CS(=O)(=O)N1CCc2cccc(Nc3nc(Nc4ccc(N5CCC(N6CCN(CCc7ccc(C8CCC(=O)NC8=O)c(F)c7F)CC6)CC5)c(F)c4)nc4[nH]ccc34)c21` (stereo not drawn) [Example 69, 3-(2,3-difluoro-4-(2-(4-(1-(2-fluoro-4-((4-((1-(methylsulfonyl)indolin-7-yl)amino)-7H-pyrrolo[2,3-d]pyrimidin-2-yl)amino)phenyl)piperidin-4-yl)piperazin-1-yl)ethyl)phenyl)piperidine-2,6-dione]: the figures for the DC50 on EGFR [1] and on EGFR [2] were 29.8 nM and 10.8 nM, respectively.

Take `COc1cc(Nc2nc(Nc3cccc4c3N(S(C)(=O)=O)CC4)c3cc[nH]c3n2)ccc1N1CCC(N2CCN(C(=O)C3CN(c4ccc5c(c4)C(=O)N(C4CCC(=O)NC4=O)C5=O)C3)CC2)CC1` (stereo not drawn) [Example 73, 2-(2,6-dioxopiperidin-3-yl)-5-(3-(4-(1-(2-methoxy-4-((4-((1-(methylsulfonyl)indolin-7-yl)amino)-7H-pyrrolo[2,3-d]pyrimidin-2-yl)amino)phenyl)piperidin-4-yl)piperazine-1-carbonyl)azetidin-1-yl)isoindoline-1,3-dione]: the DC50 at EGFR [1] is 1170 nM; on EGFR [2], 3.4 nM.

In the case of `COc1cc(Nc2nc(Nc3cccc4c3N(S(C)(=O)=O)CC4)c3cc[nH]c3n2)ccc1N1CCC(N2CCN(C(=O)[C@H]3CCN(c4ccc5c(c4)C(=O)N(C4CCC(=O)NC4=O)C5=O)C3)CC2)CC1` (stereo partly drawn) [Example 74, 2-(2,6-dioxopiperidin-3-yl)-5-((S)-3-(4-(1-(2-methoxy-4-((4-((1-(methylsulfonyl)indolin-7-yl)amino)-7H-pyrrolo[2,3-d]pyrimidin-2-yl)amino)phenyl)piperidin-4-yl)piperazine-1-carbonyl)pyrrolidin-1-yl)isoindoline-1,3-dione], the DC50 at EGFR [1] was greater than 10000 nM; on EGFR [2], 4.7 nM.

With `COc1cc(Nc2nc(Nc3cccc4c3N(S(C)(=O)=O)CC4)c3cc[nH]c3n2)ccc1N1CCC(N2CCN(C(=O)[C@@H]3CCN(c4ccc5c(c4)C(=O)N(C4CCC(=O)NC4=O)C5=O)C3)CC2)CC1` (stereo partly drawn) [Example 75, 2-(2,6-dioxopiperidin-3-yl)-5-((R)-3-(4-(1-(2-methoxy-4-((4-((1-(methylsulfonyl)indolin-7-yl)amino)-7H-pyrrolo[2,3-d]pyrimidin-2-yl)amino)phenyl)piperidin-4-yl)piperazine-1-carbonyl)pyrrolidin-1-yl)isoindoline-1,3-dione], the values for the DC50 on EGFR [1] and at EGFR [2] were greater than 10000 nM and 3.9 nM, respectively.

Take `CS(=O)(=O)N1CCc2cccc(Nc3nc(Nc4ccc(N5CCC(N6CCN(CCCC7CN(c8ccc9c(c8)C(=O)N(C8CCC(=O)NC8=O)C9=O)C7)CC6)CC5)c(F)c4)ncc3Cl)c21` (stereo not drawn) [Example 78, 5-(3-(3-(4-(1-(4-((5-chloro-4-((1-(methylsulfonyl)indolin-7-yl)amino)pyrimidin-2-yl)amino)-2-fluorophenyl)piperidin-4-yl)piperazin-1-yl)propyl)azetidin-1-yl)-2-(2,6-dioxopiperidin-3-yl)isoindoline-1,3-dione]: the DC50 at EGFR [1] came to 4.6 nM; at EGFR [2], 5.5 nM.
